Measured values: patent publication US12171744B2, “Pharmaceutical combinations for the treatment of cancer” (Presage Biosciences, Inc., priority 2016, dated 2024)

Legend:
Experiment in all cases: Western blot of treated AML cells
Format in all cases: cell-based
SKM-1 = tested on: SKM-1
Protocol: (§1) Cell lines shown in Table 1, adherent or suspension, were treated in 6-well dishes or T10 flasks respectively, seeded at one million per ml density prior to treatment in total volumes of 3-10 ml. All agents used for in vitro cell treatments were formulated in water/DMSO to achieve required concentrations (as stated in respective figure labels/legends) with DMSO concentrations not exceeding 0.01%. Drug sources are indicated in table under ‘CIVO microinjection studies’. Cells were harvested at experimental time points: 2, 6, or 24 hours post treatment as indicated in respective figures, first by washing cells twice in ice-cold PBS in 15 ml falcon tubes, centrifugation at 1000 rpm for 5 mins followed by lysis of the respective cell pellets as described in section below. Note: Drug resistant NUDHL1 Dox 1000 nM and Toledo Dox 1000 nM cell lines were generated at Presage by culturing parental lines in media with stepwise increments in Doxorubicin concentration over several passages. These cells were used to generate xenografts when resistance to 1 uM Dox was achieved.
(§2) Protein lysates were prepared by adding ice-cold 1×RIPA Buffer (from 10×, Millipore) with 1×-3× Halt protease and phosphatase inhibitor cocktail (100×, Pierce) to cell pellets, followed by pulse sonication (˜3-5 secs) three times. Lysates were cleared by centrifugation at 14K rpm for 15-20 mins and the supernatant (lysate) was collected for further analysis. To prepare lysates from cryopreserved xenograft tumor tissue, tissue was first homogenized using a hand-held tissue homogenizer (Cole Palmer) in above lysis buffer followed by pulse sonication and centrifugation as described above. Above steps were carried out under ice cold conditions. Protein samples were quantified using Bradford assay (Biorad) at 1:10 or higher dilutions using appropriate blank controls with 1×RIPA. 20-25 micrograms of protein from each sample were subject to SDS-PAGE using BOLT 4-12% Bis-Tris gels (Thermofisher) and transferred to either 0.45 or 0.2 micron pore size membranes (as applicable based on protein molecular size), and either nitrocellulose (NC) or pvdf (Thermofisher) using manufacturer's protocol, blocked for one hour in 5% milk at room temperature, probed with primary antibodies (Table 2) at 4 deg C. overnight and corresponding HRP-conjugated secondary antibodies (Jackson Immunoresearch, 1:10,000-1:20,000 dilutions) for 1 hour at room temperature. Three PBS/0.01% Tween-20 washes (5-10 mins each) were carried out after each antibody incubation. ECL chemiluminescent substrate (Pierce or GE) and autoradiographic film (Thermofisher) was used for detection of protein signals.
(§3) At the given time points, cells were lysed and subjected to western blot analysis with antibodies that specifically recognize phosphorylated RNA pol II (pSer2), MCL-1, cleaved PARP, and Beta-actin. […] Cleaved PARP (cPARP) may be used as a biomarker of apoptosis.
(§4) At the given time points, cells were lysed and subjected to western blot analysis with antibodies that specifically recognize phosphorylated RNA pol II (pSer2), MCL-1, cleaved PARP, and Beta-actin. […] Venetoclax is observed to induce MCL-1 upregulation in all three cell lines.

MV-4-11 = tested on: MV-4-11
Protocol: as §1, §2, §3, §4

OCI-AML-3 = tested on: OCI-AML-3
Protocol: as §1, §2, §3, §4

[1] = voruciclib 1.5 and 5.0 micromolar, 2, 6, or 24 h
[2] = voruciclib 1.5 micromolar, venetoclax 100 nM, 24 h

## CN1CC[C@@H](c2c(O)cc(O)c3c(=O)cc(-c4ccc(C(F)(F)F)cc4Cl)oc23)[C@@H]1CO (relative stereo) [voruciclib, (+)-trans-2-(2-Chloro-4-trifluoromethylphenyl)-5,7-dihydroxy-8-(2-hydroxymethyl-1-methylpyrrolidin-3-yl)-chromen-4-one]
SKM-1; [1]
  MCL-1: suppresses
  apoptosis (cleaved PARP): induces apoptosis
SKM-1; [2]
  MCL-1: dampens
  apoptosis (PARP): neither agent alone induces apoptosis
MV-4-11; [1]
  MCL-1: suppresses
  apoptosis (cleaved PARP): induces apoptosis
MV-4-11; [2]
  MCL-1: dampens
  apoptosis (PARP): neither agent alone induces apoptosis
OCI-AML-3; [1]
  MCL-1: suppresses
  apoptosis (cleaved PARP): induces apoptosis
OCI-AML-3; [2]
  MCL-1: dampens
  apoptosis (PARP): neither agent alone induces apoptosis
